From PMC7064328 (Environmental Health Perspectives, 2020)

Assays:
Assay type in all cases: in vivo, mouse (CD-1)
[1] = Litter parameters at necropsy (implantation sites, resorptions, viable and nonviable embryos); conditions: female, CD-1, mouse, in vivo, oral, percent of implantation sites
Method: (§1) On the day of necropsy, dams received daily oral gavage between 0700 and 0800 hours and were weighed and then euthanized humanely by swift decapitation, and serum was collected. In Block 1, necropsies were completed from 0800 to 1600 hours, and in Block 2, necropsies were completed from 0800 to 1200 hours. Serum from dams euthanized in Block 1 was snap frozen for internal dosimetry analyses. Serum and urine from Block 2 dams were reserved for clinical chemistry analyses. In both blocks, the uterus was removed, and total implantation sites were counted based on gross observation of an implantation nodule along the uterine horn. Viable embryos, nonviable embryos, and sites of resorption were counted based on gross observation. Embryos were considered viable if they were properly formed, were not pale in color, and were of similar size to neighboring embryos. Embryos that were poorly formed and pale in color (without heartbeat) were considered nonviable. Sites of resorption were defined as a dark red–appearing clot-like nodule apparent on gross observation.

Pregnant CD-1 mice [2] = experiment: as above; conditions: for % nonviable / % resorbed: percent of implantation sites
Method: as §1

Pregnant CD-1 mice [3] = experiment: Clinical chemistry of dam serum and urine; conditions: for ALB / ALP / ALT / AST / BUN / Chol / Cre / Glu / HDL / LDL / SDH / TBA / TP / Trig: dam serum; for Ucrea: dam urine
Method: Dam livers, kidneys, and placentas were trimmed and embedded by the NIEHS Mouse Embryo Phenotyping Core. Tissues collected at necropsy were fixed in 4% PFA for 72 h and paraffin embedded, and 5-μm sections were prepared and stained with hematoxylin and eosin (H&E). Pathology was evaluated and a pathology review conducted by S.A.E. Diplomate American College of Veterinary Pathologists (DACVP). Pathology reviews were conducted as an informed approach analysis [e.g., nonblinded analysis; see Sills et al. ([2019])]. Select tissue slides were scanned using the AT2 Scanner (Aperio). Images were then captured for publication using the ImageScope software; version 12.3.0.5056 (Aperio). Serum and urine obtained from dams in Block 2 were analyzed using the AU480 clinical chemistry analyzer (Beckman Coulter Inc.). Reagents and calibration standards used to measure alkaline phosphatase (ALP), alanine aminotransferase (ALT), aspartate aminotransferase (AST), blood urea nitrogen (BUN), serum creatinine, urine creatinine, glucose (Glu), total protein (TP), triglyceride (Trig), high-density lipoprotein (HDL), cholesterol (Chol), and albumin (ALB) were purchased from Beckman Coulter Inc. Reagents for sorbitol dehydrogenase (SDH), total bile acid (TBA), and micro-TP were purchased from Sekisui Diagnostics. The reagent used to measure low-density lipoprotein (LDL) was purchased form Diazyme Laboratories.

O=C(O)C(F)(F)C(F)(F)C(F)(F)C(F)(F)C(F)(F)C(F)(F)C(F)(F)F [PFOA, Perfluorooctanoic acid]
viability ([1]; 1 mg/kg/d, E11.5): 96 ± 3.3% | viability ([1]; 1 mg/kg/d, E17.5): 96.8 ± 4.1% | viability ([1]; 5 mg/kg/d, E11.5): 95.9 ± 5.9% | viability ([1]; 5 mg/kg/d, E17.5): 97.7 ± 3.4% | No. dead embryos (Pregnant CD-1 mice [2]; E11.5, 1 mg/kg/d): 0.0 ± 0.0 | No. implantation sites (Pregnant CD-1 mice [2]; E11.5, 1 mg/kg/d): 15.5 ± 2.7 | No. resorptions (Pregnant CD-1 mice [2]; E11.5, 1 mg/kg/d): 0.6 ± 0.5 | No. viable embryos (Pregnant CD-1 mice [2]; E11.5, 1 mg/kg/d): 14.8 ± 2.5 | No. dead embryos (Pregnant CD-1 mice [2]; E11.5, 5 mg/kg/d): 0.1 ± 0.3 | No. implantation sites (Pregnant CD-1 mice [2]; E11.5, 5 mg/kg/d): 14.5 ± 2.3 | No. resorptions (Pregnant CD-1 mice [2]; E11.5, 5 mg/kg/d): 0.5 ± 0.9 | No. viable embryos (Pregnant CD-1 mice [2]; E11.5, 5 mg/kg/d): 13.9 ± 2.2 | No. dead embryos (Pregnant CD-1 mice [2]; E17.5, 1 mg/kg/d): 0.1 ± 0.3 | No. implantation sites (Pregnant CD-1 mice [2]; E17.5, 1 mg/kg/d): 13.5 ± 2.0 | No. resorptions (Pregnant CD-1 mice [2]; E17.5, 1 mg/kg/d): 0.3 ± 0.5 | No. viable embryos (Pregnant CD-1 mice [2]; E17.5, 1 mg/kg/d): 13.1 ± 2.1 | No. dead embryos (Pregnant CD-1 mice [2]; E17.5, 5 mg/kg/d): 0.0 ± 0.0 | No. implantation sites (Pregnant CD-1 mice [2]; E17.5, 5 mg/kg/d): 13.7 ± 2.1 | No. resorptions (Pregnant CD-1 mice [2]; E17.5, 5 mg/kg/d): 0.3 ± 0.5 | No. viable embryos (Pregnant CD-1 mice [2]; E17.5, 5 mg/kg/d): 13.3 ± 1.9 | % nonviable (Pregnant CD-1 mice [2]; E11.5, 1 mg/kg/d): 0.0 ± 0.0% | % resorbed (Pregnant CD-1 mice [2]; E11.5, 1 mg/kg/d): 4.0 ± 3.3% | % nonviable (Pregnant CD-1 mice [2]; E11.5, 5 mg/kg/d): 0.6 ± 1.9% | % resorbed (Pregnant CD-1 mice [2]; E11.5, 5 mg/kg/d): 3.6 ± 5.9% | % nonviable (Pregnant CD-1 mice [2]; E17.5, 1 mg/kg/d): 0.6 ± 2.1% | % resorbed (Pregnant CD-1 mice [2]; E17.5, 1 mg/kg/d): 2.6 ± 3.9% | % nonviable (Pregnant CD-1 mice [2]; E17.5, 5 mg/kg/d): 0.0 ± 0.0% | % resorbed (Pregnant CD-1 mice [2]; E17.5, 5 mg/kg/d): 2.3 ± 3.4% | Dam serum Trig lowered vs controls (Pregnant CD-1 mice [3]; E11.5, 1 mg/kg/d): 37% | Dam serum Trig lowered vs controls (Pregnant CD-1 mice [3]; E11.5, 5 mg/kg/d): 58% | Serum Glu lower relative to controls (Pregnant CD-1 mice [3]; E11.5, 5 mg/kg/d, p=0.06): 20% | Dam serum Trig lower vs controls (Pregnant CD-1 mice [3]; E17.5, 5 mg/kg/d): 66% | LDL lower vs controls (Pregnant CD-1 mice [3]; E17.5, 5 mg/kg/d): 50% | ALT increase relative to controls (Pregnant CD-1 mice [3]; Table 2 (E11.5), 5 mg/kg/d, not statistically significant): 172% | ALB (Pregnant CD-1 mice [3]; E11.5, 1 mg/kg/d): 2.42±0.22 (5) g/dL | ALP (Pregnant CD-1 mice [3]; E11.5, 1 mg/kg/d): 54.6±4.4 (5) U/L | ALT (Pregnant CD-1 mice [3]; E11.5, 1 mg/kg/d): 28.8±11.5 (5) U/L | AST (Pregnant CD-1 mice [3]; E11.5, 1 mg/kg/d): 144.6±167.6 (5) U/L | BUN (Pregnant CD-1 mice [3]; E11.5, 1 mg/kg/d): 15.0±2.7 (5) mg/dL | Chol (Pregnant CD-1 mice [3]; E11.5, 1 mg/kg/d): 68.8±18.0 (5) mg/dL | Cre (Pregnant CD-1 mice [3]; E11.5, 1 mg/kg/d): 0.2±0.05 (5) mg/dL | Glu (Pregnant CD-1 mice [3]; E11.5, 1 mg/kg/d): 278.4±27.8 (5) mg/dL | HDL (Pregnant CD-1 mice [3]; E11.5, 1 mg/kg/d): 34.8±10.9 (5) mg/dL | LDL (Pregnant CD-1 mice [3]; E11.5, 1 mg/kg/d): 12.2±1.9 (5) mg/dL | SDH (Pregnant CD-1 mice [3]; E11.5, 1 mg/kg/d): 8.4±7.8 (5) U/L | TBA (Pregnant CD-1 mice [3]; E11.5, 1 mg/kg/d): 1.5±0.58 (4) μM/L | TP (Pregnant CD-1 mice [3]; E11.5, 1 mg/kg/d): 4.04±0.3 (5) g/dL | Trig (Pregnant CD-1 mice [3]; E11.5, 1 mg/kg/d): 130.4±16.2 (5) mg/dL | ALB (Pregnant CD-1 mice [3]; E11.5, 5 mg/kg/d): 2.36±0.21 (5) g/dL | ALP (Pregnant CD-1 mice [3]; E11.5, 5 mg/kg/d): 56.6±35.6 (5) U/L | ALT (Pregnant CD-1 mice [3]; E11.5, 5 mg/kg/d): 70.8±16.2 (5) U/L | AST (Pregnant CD-1 mice [3]; E11.5, 5 mg/kg/d): 92.6±20.3 (5) U/L | BUN (Pregnant CD-1 mice [3]; E11.5, 5 mg/kg/d): 15.8±1.3 (5) mg/dL | Chol (Pregnant CD-1 mice [3]; E11.5, 5 mg/kg/d): 69.4±9.9 (5) mg/dL | Cre (Pregnant CD-1 mice [3]; E11.5, 5 mg/kg/d): 0.18±0.03 (5) mg/dL | Glu (Pregnant CD-1 mice [3]; E11.5, 5 mg/kg/d): 220.4±22.1 (5) mg/dL | HDL (Pregnant CD-1 mice [3]; E11.5, 5 mg/kg/d): 42.6±4.0 (5) mg/dL | LDL (Pregnant CD-1 mice [3]; E11.5, 5 mg/kg/d): 10.6±1.5 (5) mg/dL | SDH (Pregnant CD-1 mice [3]; E11.5, 5 mg/kg/d): 12.4±8.3 (5) U/L | TBA (Pregnant CD-1 mice [3]; E11.5, 5 mg/kg/d): 2.0±0.0 (5) μM/L | TP (Pregnant CD-1 mice [3]; E11.5, 5 mg/kg/d): 3.78±0.22 (5) g/dL | Trig (Pregnant CD-1 mice [3]; E11.5, 5 mg/kg/d): 86.4±15.8 (5) mg/dL | ALB (Pregnant CD-1 mice [3]; E17.5, 1 mg/kg/d): 2.04±0.09 (5) g/dL | ALP (Pregnant CD-1 mice [3]; E17.5, 1 mg/kg/d): 50.2±4.2 (5) U/L | ALT (Pregnant CD-1 mice [3]; E17.5, 1 mg/kg/d): 7.0±4.3 (5) U/L | AST (Pregnant CD-1 mice [3]; E17.5, 1 mg/kg/d): 73.0±14.0 (5) U/L | BUN (Pregnant CD-1 mice [3]; E17.5, 1 mg/kg/d): 16.4±1.7 (5) mg/dL | Chol (Pregnant CD-1 mice [3]; E17.5, 1 mg/kg/d): 83.8±20.0 (5) mg/dL | Cre (Pregnant CD-1 mice [3]; E17.5, 1 mg/kg/d): 0.2±0.01 (5) mg/dL | Glu (Pregnant CD-1 mice [3]; E17.5, 1 mg/kg/d): 121.0±17.3 (5) mg/dL | HDL (Pregnant CD-1 mice [3]; E17.5, 1 mg/kg/d): 37.2±6.2 (5) mg/dL | LDL (Pregnant CD-1 mice [3]; E17.5, 1 mg/kg/d): 24.0±10.7 (5) mg/dL | SDH (Pregnant CD-1 mice [3]; E17.5, 1 mg/kg/d): 3.4±6.1 (5) U/L | TBA (Pregnant CD-1 mice [3]; E17.5, 1 mg/kg/d): 3.0±1.2 (5) μM/L | TP (Pregnant CD-1 mice [3]; E17.5, 1 mg/kg/d): 3.9±0.11 (5) g/dL | Trig (Pregnant CD-1 mice [3]; E17.5, 1 mg/kg/d): 364.0±272.9 (5) mg/dL | ALB (Pregnant CD-1 mice [3]; E17.5, 5 mg/kg/d): 1.53±0.27 (6) g/dL | ALP (Pregnant CD-1 mice [3]; E17.5, 5 mg/kg/d): 74.8±23.8 (6) U/L | ALT (Pregnant CD-1 mice [3]; E17.5, 5 mg/kg/d): 16.8±7.7 (6) U/L | AST (Pregnant CD-1 mice [3]; E17.5, 5 mg/kg/d): 172.2±63.1 (6) U/L | BUN (Pregnant CD-1 mice [3]; E17.5, 5 mg/kg/d): 18.7±5.3 (6) mg/dL | Chol (Pregnant CD-1 mice [3]; E17.5, 5 mg/kg/d): 68.5±16.4 (6) mg/dL | Cre (Pregnant CD-1 mice [3]; E17.5, 5 mg/kg/d): 0.16±0.06 (6) mg/dL | Glu (Pregnant CD-1 mice [3]; E17.5, 5 mg/kg/d): 112.0±15.8 (6) mg/dL | HDL (Pregnant CD-1 mice [3]; E17.5, 5 mg/kg/d): 38.8±11.2 (6) mg/dL | LDL (Pregnant CD-1 mice [3]; E17.5, 5 mg/kg/d): 11.0±3.0 (5) mg/dL | SDH (Pregnant CD-1 mice [3]; E17.5, 5 mg/kg/d): 24.3±11.2 (6) U/L | TBA (Pregnant CD-1 mice [3]; E17.5, 5 mg/kg/d): 8.0±7.9 (6) μM/L | TP (Pregnant CD-1 mice [3]; E17.5, 5 mg/kg/d): 2.8±0.39 (6) g/dL | Trig (Pregnant CD-1 mice [3]; E17.5, 5 mg/kg/d): 159.0±65.5 (6) mg/dL | Ucrea (Pregnant CD-1 mice [3]; E11.5, 1 mg/kg/d): 92.0±13.1 (4) mg/dL | Ucrea (Pregnant CD-1 mice [3]; E11.5, 5 mg/kg/d): 50.1±33.8 (4) mg/dL | Ucrea (Pregnant CD-1 mice [3]; E17.5, 1 mg/kg/d): 24.7±23.1 (2) mg/dL | Ucrea (Pregnant CD-1 mice [3]; E17.5, 5 mg/kg/d): 11.5±5.9 (3) mg/dL
